# Experimental data reported in patent US12397056B2, “System for inducing sonoporation of a drug into cancer cells and method thereof” (Freedom Waves S.R.L, priority 2018, dated 2025).
# Entries after “also recorded” stand apart in the source; their conditions may differ.
# Assays:
# Assay type in all cases: cell-based
# [1] = tested on: MDA-MB-231: estrogen independent human breast adenocarcinoma; experiment: Cell death of MDA-MB-231 cells after drug with or without pLINFU sonoporation
# Procedure: (§1) The system of the present invention was tested in vitro using two cellular lines of human breast cancer and one cellular line of human pancreatic adenocarcinoma. In particular the following cellular lines were employed: • MCF-7: human breast ductal carcinoma; • MDA-MB-231: estrogen independent human breast adenocarcinoma; • MiaPaCa-2: human pancreatic adenocarcinoma.
# (§2) For each combination the percentage of cell death was measured in three main experimental conditions: • administration of the drug (hereinafter named “NO-US” condition); • administration of the drug and simultaneous administration of non focalized pulsed low-intensity ultrasound with a frequency of 1 MHz and a period of 1 second, said drug being administered in a unique dose; • 1 administration of non focalized pulsed low-intensity ultrasound with a frequency of 1 MHz and a period of 1 second, followed by administration of the drug; and • administration of the drug and simultaneous administration of non focalized pulsed low-intensity ultrasound with a frequency of 1 MHz and a period of 1 second, said drug being administered in two doses of equal concentration (hereinafter termed “US-DC” condition).
# (§3) All the experimental conditions, other than NO-US, were replicated for different values of duty cycle and each experimental condition were replicated for three different total concentrations of drugs. Several operation times were also tested for each cellular lines and for each type of drug.
# [2] = tested on: MCF-7: human breast ductal carcinoma; experiment: Cell death of MCF-7 cells after drug with or without pLINFU sonoporation
# Procedure: as §1, §2, §3
# [3] = tested on: human pancreatic adenocarcinoma cells; experiment: Internalization of fluoresceinamine (FA) into cancer cells (FIG. 7, CLSM)
# From the text: This example is relative to an experiment of internalization of a fluoresceinamine (FA). […] The tested experimental condition are: • FA-NO-US-NO DRUG: administration of FA alone, without administration of any drug and without administration of ultrasounds; • FA-LI-NO-US: administration of FA and liposomal irinotecan (LI), without administration of ultrasounds; • US-DC=12%: administration of FA and liposomal irinotecan (LI), with the simultaneous administration of pLINFUs with a duty cycle of 12%; • US-PRE-DC=1%: administration of pLINFUs with a duty cycle of 1% followed by subsequent administration of FA and liposomal irinotecan (LI); and • US-DC=1%: administration of FA and liposomal irinotecan (LI), with the simultaneous administration of pLINFUs with a duty cycle of 1%.
# In FIG. 7, it is graphically represented the FA Internalization (%), i.e. the percentage of FA measured after the removal of the […] liquid from the cell culture wells, i.e. the percentage of FA inside the cell. The results of the experiment of this example were also analyzed by Confocal Laser Scanning Microscopy (CLSM) after 2 hours of incubation. FIGS. 8a, 8b, 8c, 8d, 8e show the intake of the FA into human pancreatic adenocarcinoma cells, in the five aforementioned experimental conditions.
# It can be explained with a greater chemical interaction between the polymeric chains of polyethylene glycol of the liposomal membrane and the FA.
# [4] = total concentration 100 μg/ml, NO-US (no ultrasound)
# [5] = total concentration 100 μg/ml, US-DC = 9%
# [6] = total concentration 100 μg/ml, US-DC = 9% (pLINFU 1 MHz, 20 s + 20 s)
# [7] = total concentration 100 μg/ml, US-DC = 12%
# [8] = total concentration 100 μg/ml, US-DC = 12% (pLINFU 1 MHz, 20 s + 20 s)
# [9] = total concentration 500 μg/ml, NO-US (no ultrasound)
# [10] = total concentration 500 μg/ml, US-DC = 9%
# [11] = total concentration 500 μg/ml, US-DC = 9% (pLINFU 1 MHz, 20 s + 20 s)
# [12] = total concentration 500 μg/ml, US-DC = 12%
# [13] = total concentration 500 μg/ml, US-DC = 12% (pLINFU 1 MHz, 20 s + 20 s)
# [14] = total concentration 1000 μg/ml, US-DC = 9%
# [15] = total concentration 1000 μg/ml, US-DC = 9% (pLINFU 1 MHz, 20 s + 20 s)
# [16] = total concentration 1000 μg/ml, US-DC = 12%
structure (smiles),measurement,setting,value
COc1cccc2c1C(=O)c1c(O)c3c(c(O)c1C2=O)C[C@@](O)(C(=O)CO)C[C@@H]3O[C@H]1C[C@H](N)[C@H](O)[C@H](C)O1 [Doxorubicin],Cell Death %,[1]; [4],10.9%
same,Increasing % vs NO-US,[1]; [5],+116%
same,Cell Death %,[1]; [6],23.5%
same,Increasing % vs NO-US,[1]; [7],+11.8%
same,Cell Death %,[1]; [8],12%
same,Cell Death %,[1]; [9],22.8%
same,Increasing % vs NO-US,[1]; [10],+70.5%
same,Cell Death %,[1]; [11],38.8%
same,Increasing % vs NO-US,[1]; [12],+18.4%
same,Cell Death %,[1]; [13],27%
same,Increasing % vs NO-US,[1]; [14],+11.1%
same,Cell Death %,[1]; [15],60.5%
same,Increasing % vs NO-US,[1]; [16],+0.3%
same,Cell Death %,[2]; [4],17.1%
same,Increasing % vs NO-US,[2]; [5],+74.4%
same,Cell Death %,[2]; [6],29.8%
same,Increasing % vs NO-US,[2]; [7],+64.9%
same,Cell Death %,[2]; [8],28.2%
same,Cell Death %,[2]; [9],23.3%
same,Increasing % vs NO-US,[2]; [10],+102.5%
same,Cell Death %,[2]; [11],47.2%
same,Increasing % vs NO-US,[2]; [12],+114.2%
same,Cell Death %,[2]; [13],49.9%
same,Cell Death %,"[2]; total concentration 1000 μg/ml, NO-US (no ultrasound)",59%
same,Increasing % vs NO-US,[2]; [14],+19.7%
same,Cell Death %,[2]; [15],70.6%^
same,Increasing % vs NO-US,[2]; [16],+39%
same,Cell Death %,"[2]; total concentration 1000 μg/ml, US-DC = 12% (pLINFU 1 MHz, 20 s + 20 s)",82%
"Nc1ccc2c(c1)C(=O)OC21c2ccc(O)cc2Oc2cc(O)ccc21 [FA, fluoresceinamine]",intake of the FA into cells (CLSM),"[3]; FA-LI-NO-US: FA with liposomal irinotecan, no ultrasound, FIG. 8b","greater fluorescence density is observed, but only at an extracellular perimembrane level"
same,intake of the FA into cells (CLSM),"[3]; FA-NO-US-NO DRUG: FA alone, no drug, no ultrasound, 2 hours incubation, FIG. 8a",not accumulated in the cells
same,FA Internalization (%),"[3]; US-DC=1% compared with the other four conditions, FIG. 7",higher FA internalization %
same,intake of the FA into cells (CLSM),"[3]; US-DC=1%: FA with liposomal irinotecan, simultaneous pLINFU duty cycle 1%, FIG. 8e",highest level of FA internalization
same,intake of the FA into cells (CLSM),"[3]; US-DC=12%: FA with liposomal irinotecan, simultaneous pLINFU duty cycle 12%, FIG. 8c",the presence of FA inside the cells became evident
same,intake of the FA into cells (CLSM),"[3]; US-PRE-DC=1%: pLINFU duty cycle 1% followed by FA and liposomal irinotecan, FIG. 8d",the presence of FA inside the cells became evident; also recorded: a certain grade of FA internalization is achieved
